Measured values from patent EP4671247A1, “SUBSTITUTED PYRAZOLOPYRIMIDINE COMPOUND AND PHARMACEUTICAL USE THEREOF” (Japan Tobacco Inc., priority 2023, dated 2024).

biological target: T1, NLRP3 inflammasome (Homo sapiens, UniProt Q96P20); test: Evaluation of NLRP3 inflammasome inhibitory activity (inhibition of IL-1β production in LPS/Nigericin-stimulated THP1-Null cells, AlphaLISA); assay type: cell-based; conditions: IL-1β production in THP1-Null cells; PMA, 1 µg/mL Lipopolysaccharides 3 hours, Nigericin 7.5 µmol/L 1.5 hours
T1 construct: host or cells: THP1-Null cells (PMA-differentiated, LPS-primed, nigericin-stimulated)
How it was run: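 THP1-Null cells were primed with 1 µg/mL LPS, then given test compound and stimulated with nigericin. IL-1β in the culture supernatant was quantified by AlphaLISA. Inhibition was calculated with blank wells set as 100% and control wells as 0%.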

T1 sequence (Q96P20 whole entry): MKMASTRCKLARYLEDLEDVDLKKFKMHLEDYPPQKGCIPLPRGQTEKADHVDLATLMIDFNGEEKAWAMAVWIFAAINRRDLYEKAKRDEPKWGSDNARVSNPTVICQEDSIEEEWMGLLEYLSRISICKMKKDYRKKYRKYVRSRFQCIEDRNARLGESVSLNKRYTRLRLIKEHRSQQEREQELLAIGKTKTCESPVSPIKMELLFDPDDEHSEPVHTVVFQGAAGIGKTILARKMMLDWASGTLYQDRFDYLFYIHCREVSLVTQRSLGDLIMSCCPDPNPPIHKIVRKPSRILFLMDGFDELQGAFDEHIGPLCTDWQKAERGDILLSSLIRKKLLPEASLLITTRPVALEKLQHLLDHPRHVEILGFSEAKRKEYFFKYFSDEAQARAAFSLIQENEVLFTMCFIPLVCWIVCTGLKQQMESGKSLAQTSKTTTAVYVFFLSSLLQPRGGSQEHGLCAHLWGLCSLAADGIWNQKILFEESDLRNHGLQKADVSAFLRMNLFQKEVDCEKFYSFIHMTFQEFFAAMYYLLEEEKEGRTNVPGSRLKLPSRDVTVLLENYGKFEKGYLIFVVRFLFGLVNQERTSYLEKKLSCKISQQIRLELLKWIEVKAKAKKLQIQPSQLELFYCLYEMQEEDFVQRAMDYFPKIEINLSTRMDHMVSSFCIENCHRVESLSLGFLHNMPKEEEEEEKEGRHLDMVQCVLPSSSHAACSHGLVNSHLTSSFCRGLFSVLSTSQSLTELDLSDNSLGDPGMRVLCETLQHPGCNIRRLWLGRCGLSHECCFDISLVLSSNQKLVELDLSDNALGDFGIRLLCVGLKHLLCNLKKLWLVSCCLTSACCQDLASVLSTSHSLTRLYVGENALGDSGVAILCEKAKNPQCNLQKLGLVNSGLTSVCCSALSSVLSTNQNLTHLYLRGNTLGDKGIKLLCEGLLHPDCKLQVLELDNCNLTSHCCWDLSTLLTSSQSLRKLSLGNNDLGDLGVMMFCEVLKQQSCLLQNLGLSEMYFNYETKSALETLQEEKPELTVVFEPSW

| SMILES | IC50 [nM] |
| --- | --- |
| Cc1cc(OC(F)F)cc(C)c1-n1cc2c(=O)[nH]c(C3CC3F)nc2n1 (single isomer, unassigned) [Example 173] | 15 |

same assay, conditions: IL-1β production in THP1-Null cells; PMA, 1 µg/mL Lipopolysaccharides 3 hours, Nigericin 7.5 µmol/L 1.5 hours; read-out: IC50

| SMILES | IC50 [nM] |
| --- | --- |
| Cc1cc(C2CC2)cc(OC(F)F)c1-n1cc2c(=O)[nH]c(C3CC3)nc2n1 [Example 75] | 11 |
| Cc1cc(Br)cc(C)c1-n1cc2c(=O)[nH]c(C(O)C(F)F)nc2n1 (racemic) [Example 139] | 36 |
| Cc1cc(C2CC2)cc(C)c1-n1cc2c(=O)[nH]c(COCC3CCOCC3)nc2n1 [Example 47] | 180 |
| Cc1cc(C(C)(C)F)cc(C)c1-n1cc2c(=O)[nH]c(C3(F)CCOCC3)nc2n1 [Example 109] | 17 |
| Cc1cc(C(C)(F)F)cc(C)c1-n1cc2c(=O)[nH]c([C@H]3C[C@@H]3F)nc2n1 (single isomer, unassigned) [Example 147] | 24 |
| Cc1cc(Br)cc(C)c1-n1cc2c(=O)[nH]c(C3(C#N)CC3)nc2n1 [Example 30] | 280 |
| Cc1ccc(-n2cc3c(=O)[nH]c(C4CC4)nc3n2)c(C)c1 [Example 3] | 240 |
| Cc1cc(C2CC2)cc(C)c1-n1cc2c(=O)[nH]c(C(N)=O)nc2n1 [Example 203] | 290 |
| Cc1cc(C2CC2)cc(C)c1-n1cc2c(=O)[nH]c(C34CC(CO)(CO3)C4)nc2n1 [Example 95] | 42 |
| Cc1cc(C2CC2)cc(C)c1-n1nc2nc(C3CC3)[nH]c(=O)c2c1CO [Example 83, 6-cyclopropyl-2-(4-cyclopropyl-2,6-dimethylphenyl)-3-(hydroxymethyl)-2,5-dihydro-4H-pyrazolo[3,4-d]pyrimidin-4-one] | 24 |

same assay, conditions: test compound at 24 µM; IL-1β production in THP1-Null cells

| SMILES | inhibition at 24 µM [%] |
| --- | --- |
| CCOc1nc(C)nc2nn(-c3ccc(C)cc3C)cc12 [Example 11] | 43 |
